B1: IL-12: Recombinant human IL-12 purchased from Miltenyi Biotec (protein, UniProt P29459 23-219; P29460 23-328, looked up)
Interleukin-12 subunit alpha: RNLPVATPDPGMFPCLHHSQNLLRAVSNMLQKARQTLEFYPCTSEEIDHEDITKDKTSTVEACLPLELTKNESCLNSRETSFITNGSCLASRKTSFMMALCLSSIYEDLKMYQVEFKTMNAKLLMDPKRQIFLDQNMLAVIDELMQALNFNSETVPQKSSLEEPDFYKTKIKLCILLHAFRIRAVTIDRVMSYLNAS
Interleukin-12 subunit beta: IWELKKDVYVVELDWYPDAPGEMVVLTCDTPEEDGITWTLDQSSEVLGSGKTLTIQVKEFGDAGQYTCHKGGEVLSHSLLLLHKKEDGIWSTDILKDQKEPKNKTFLRCEAKNYSGRFTCWWLTTISTDLTFSVKSSRGSSDPQGVTCGAATLSAERVRGDNKEYEYSVECQEDSACPAAEESLPIEVMVDAVHKLKYENYTSSFFIRDIIKPDPPKNLQLKPLKNSRQVEVSWEYPDTWSTPHSYFSLTFCVQVQGKSKREKKDRVFTDKTSATVICRKNASISVRAQDRYYSSSWSEWASVPCS
B2: IL-7: Recombinant human IL-7 purchased from Miltenyi Biotec (protein, UniProt P13232 26-177, looked up)
Interleukin-7: DCDIEGKDGKQYESVLMVSIDQLLDSMKEIGSNCLNNEFNFFKRHICDANKEGMFLFRAARKLRQFLKMNSTGDFDLHLLKVSEGTTILLNCTGQVKGRKPAALGEAQPTKSLEENKSLKEQKKLNDLCFLKRLLQEIKTCWNKILMGTKEH

System: Cbl-b
Test: Cbl-b protein by immunoblot after stimulation of primary human NK cells with cytokines or activating antibody
Type: cell-based
Settings: primary human NK cells, 24 h cytokine stimulation, compared to resting NK cells without cytokines
Protocol: (FIG. 1B) Enriched primary human NK cells were co-cultured with the K562 myeloid leukemia cell line (E/T ratio=10:1) for 24 h followed by immunoblot analysis. Summary data are from three independent experiments. (FIG. 1C) Primary human NK cells were treated with different concentrations of IL-15 for 24 h followed by immunoblot analysis (n=5 donors). (FIG. 1D) Equal numbers of purified CD56^+ human NK cells, CD56^bright NK cells and CD56^dim NK cells were sorted from peripheral blood mononuclear cells isolated by Ficoll, cultured and stimulated with IL-15 (20 ng/ml for 24 h) followed by immunoblot analysis. The data are representative of three independent experiments. Med, medium only; *P<0.05, **P<0.01 by two-tailed unpaired t-test or One-way ANOVA; ns, not significant. Data are presented as mean±SEM.
FIG. 6A Enriched primary human NK cells were cocultured with Molm-13 or MV4-11 leukemia cell lines (E/T ratio=10:1) for 24 h prior to assessment of Cbl-b by immunoblot analysis. […] FIG. 6B Enriched primary human NK cells were cultured overnight with an anti-NKG2D activating antibody (clone 1D11) (10 μg/ml) or mouse IgG (10 μg/ml) as control prior to assessment of Cbl-b by immunoblot analysis. […] Data are shown summarizes four independent experiments. […] Data are shown summarizes five independent experiments. FIG. 6E The expression of Cbl-b was assessed by qRT-PCR after primary human NK cells were incubated with K562 cells (E/T ratio=10:1) for 24 h. Data are shown summarizes five independent experiments. *P<0.05, **P<0.01, compared to the shortest time point. Data are presented as mean±SEM.
Immunoblotting. Cells were harvested and suspended in RIPA lysis buffer (Thermo Fisher Scientific) on ice for 20 minutes. Equal amount of protein was resolved by 5-15% Criterion TGX gel (Bio-Rad) and then transferred onto a Nitrocellulose (NC) or PVDF membrane (Thermo Fisher Scientific). The membrane was incubated with a primary antibody at 4° C. overnight and an IRDye secondary antibody (Li-COR Biosciences) for 1 hour at room temperature. The immunoblots were visualized with Odyssey CLx Imager (Li-COR Biosciences). Densitometric analysis was performed to quantify intensity of gel bands with Image J (National Institutes of Health).
We assessed the expression of Cbl-b protein in primary human NK cells enriched from the blood of healthy donors in response to 24-hour stimulation by different cytokines. […] Since certain tumor cells can trigger NK cell activation, we co-cultured NK cells for 24 h with different tumor cell lines in order to assess this effect on the expression of Cbl-b.

Row | Molecule | expression of Cbl-b protein (ratio to β-actin)
1 | IL-21: Recombinant human IL-21 purchased from Miltenyi Biotec | no significant change
2 | IL-18: Recombinant human IL-18 purchased from Miltenyi Biotec | no significant change
3 | B1 | no significant change
4 | B2 | no significant change

Source: patent publication US20240299542A1, “NATURAL KILLER CELLS ENGINEERED TO REDUCE OR ELIMINATE CBL-B AND USES THEREOF” (City of Hope, priority 2021, published 2024)
